From patent US11000568B2, “Means and methods for treating copper-related diseases” (HELMHOLTZ ZENTRUM MÜNCHEN—DEUTSCHES FORSCHUNGSZENTRUM FÜR …, priority 2015, dated 2021)
Numbered stars: 1 amine (or outer) side, 2 acyl side, 3 side chain; on linkers, the order of the positions; unused ones are H or OH. Bridge positions count the residues as written; N and C are the ends. Square brackets hold non-standard residues; d marks the D form. Peptide text beside a SMILES is read from it. * marks the point of attachment. X2 = O=C1OC(C2CCCN2[*:1])=NC1C(=S)NC(CO)C(=O)[*:2]; X1 = CC(C)CC(=O)C1=NC(C(=S)NCC(=O)*)C(=O)O1

Tested on: HepG2 cells
Experiment: Cellular de-coppering of HepG2 cells (ICP-OES)
Format: cell-based
Procedure: HepG2 cells were kept in MEM with 2% FCS. […] Therefore, Zn-MB, generated by preparing a 20 mM MB solution and adding an equimolar concentration of Zn solution under pH control, was used in cell culture experiments.
To determine the cellular de-coppering efficiency of MB, cells were pretreated with 2% FCS containing medium or 15 μM copper-histidine for 24 h and subsequently subjected to a 24 h treatment with 500 μM MB. Thereafter, cells were washed two times and counted. Copper in 2.5×10^6 cells was determined by ICP-OES after wet ashing of samples with 65% nitric acid.
Copper in liver homogenates, cell lysates and mitochondrial preparations were analyzed by ICP-OES (Ciros Vision, SPECTRO Analytical Instruments GmbH) after wet ashing of samples with 65% nitric acid (Zischka et al., log. cit.).

SMILES: CSCCC(NC(=O)C1CSSCC(NC(=O)C(CO)NC(=O)CNC(=S)C2N=C(C(=O)CC(C)C)OC2=O)C(=O)NC(Cc2ccc(O)cc2)C(=O)N2CCCC2C2=NC(C(=O)O2)C(=S)NC(CO)C(=O)N1)C(=O)O (stereo not drawn) [MB] (X1-SCY[X2]CM-OH; disulfide 2-5; configuration not given here)
- de-coppering of copper preloaded HepG2 cells (24 h MB treated vs untreated control): highly efficiently de-coppered
- reduction of copper in HepG2 cells (basic copper load, 24 h 500 μM MB (Zn-MB used in cell culture)): 50%
- reduction of copper in HepG2 cells (preloaded with 15 μM copper-histidine 24 h, then 24 h 500 μM MB): 50%
